These results are taken from US12629382B2, “Therapy” (Vestlandets Innovasjonsselskap AS, priority 2019, dated 2026).

One series concerns A172 glioma cells. As to the kind of experiment: Intracellular GSH, GSH-Glo assay, A172 cells. The format is cell-based. As to conditions: Homo sapiens, 48 h, normalized to untreated control; for activity at 250 µM: A 172, 250 μM compound, read-out: Intracellular GSH level A172 250 μM; for activity at 500 µM: A 172, 500 μM compound, read-out: Intracellular GSH level A172 500 μM. Here is the method: (§1) The cancer cell lines A172, A375, U87 and MCF7 were purchased from American Type Culture Collection (ATCC; Manassas, Va., USA). Cells were cultured in Dulbecco's Modified Eagle's Medium (DMEM) supplemented with 10% fetal bovine serum, 2% v/v L-glutamine, 3.2% v/v non-essential amino acids, antibiotics 2% v/v (penicillin-streptomycin), and 0.02% v/v Plasmocin at 37° C. and 5% CO2.
(§2) xCT expression of cancer cell lines was evaluated by western blotting from protein samples of cell lysates as described in Sleire et al., Oncogene 34: 5951-5959, 2015. Protein concentrations were determined by BCA assay (Thermo Fisher Scientific, USA) followed by SDS PAGE and immunoblotting using rabbit anti-xCT (Thermo Fisher Scientific) and rabbit anti-GAPDH (Abcam, Cambridge, UK) as a loading control. The compounds were dissolved in dimethylsulfoxide (DMSO) (Sigma Aldrich, Germany) and stock concentrations of 100 mM were stored at −20° C. in aliquots. Final concentrations were made in growth medium before adding to the cell monolayers.
(§3) The compounds were evaluated based on the measurement of intracellular Glutathione (GSH) which was performed by the GSH-Glo assay (Promega, Madison, WI, USA, cat #V6912) according to the manufacturer's recommended procedures. 5000 cells per well were seeded in a flat bottomed 96-well plate. After attachment to the well surface, cells were exposed to 250 μM and 500 μM of each compound for 48 h. After that, GSH-Glo reagent was added followed by short incubation and addition of luciferin detection reagent. Bioluminescence was measured using a luminometer (Victor 3 1420 multi-label counter, Perkins Elmer, Waltham, MA, USA). IC50 doses for the compounds SAS, DC10 and DC14 were determined in A172 glioma cells, using the GraphPad Prism v6 software (GraphPad Software, Inc. CA, USA). All measurements were normalized to the untreated control and were performed three times.

The test system of another series is A375. As to the kind of experiment: Intracellular GSH, GSH-Glo assay, A375 cells. It is filed as cell-based. As to conditions: Homo sapiens, 48 h, normalized to untreated control; for activity at 250 µM: A-375, 250 μM compound, read-out: Intracellular GSH level A375 250 μM; for activity at 500 µM: A-375, 500 μM compound, read-out: Intracellular GSH level A375 500 μM. Here is the method: as §1, §2, §3

Another series relates to MCF7. The experiment in a line: Intracellular GSH, GSH-Glo assay, MCF7 cells. The format is cell-based. As to conditions: Homo sapiens, 48 h, normalized to untreated control; for activity at 250 µM: 250 μM compound, read-out: Intracellular GSH level MCF7 250 μM; for activity at 500 µM: 500 μM compound, read-out: Intracellular GSH level MCF7 500 μM. Here is the method:
as §1, §2, §3

For a further series, the system named is U87. The experiment in a line: Intracellular GSH, GSH-Glo assay, U87 cells. It is filed as cell-based. The settings on record: Homo sapiens, U-87 MG, 48 h, normalized to untreated control; for activity at 250 µM: 250 μM compound, read-out: Intracellular GSH level U87 250 μM; for activity at 500 µM: 500 μM compound, read-out: Intracellular GSH level U87 500 μM. Here is the method: as §1, §2, §3

Series [1] is described as follows: Assessment of toxicity associated with DC10 in mice. It is filed as in vivo. The settings on record: 16 mg by oral gavage, NOD/Scid mice, 24 or 48 hours. The source says:
(§4) Experiments were approved by the Norwegian Animal Research Authority (Oslo, Norway) in accordance with the Guide for the Care and Use of Laboratory Animals (Institute for Laboratory Animal Research, National Research Council. Washington, D.C.: National Academy Press, 1996). NOD/Scid mice were kept at the animal facility at Department of Biomedicine at the University of Bergen. The animals were provided a standard pellet diet and tap water ad libitum. They were kept in a pathogen free environment at a constant temperature and humidity, and standard 12/12 h light and dark cycle.
DC10 was dissolved in distilled water and administered as a slurry by oral gavage. 16 mg was administered in a volume of 0.2 ml to each animal. […] Blood was sampled through heart puncture with a 3 ml syringe and 0.75 to 1 ml blood was collected. 250 μl was transferred to EDTA tubes that were tilted 15 times to avoid coagulation. The remaining volumes were transferred to 1.5 ml cryotubes and left to coagulate for 3 minutes before centrifugation at 2200 RCF for 10 minutes. This was followed by transfer of the supernatant to new cryotubes that were kept at −20° C., then thawed immediately prior to analysis at the clinical laboratory at Haukeland University Hospital. Blood collected on EDTA tubes underwent hematological analyses, whereas serum underwent biochemical analyses. Organs were also harvested, fixed on 4% formalin embedded in paraffin, sectioned and stained with hematoxylin and esosin.

In another series the test system is A375 melanoma cells. As to the kind of experiment: Validation of DC10 as a radiosensitizer in vivo, subcutaneous A375 tumours. The settings on record: DC10+RT: 8 mg DC10 on day 14, 4 Gy radiation at day 15, compared with control, DC10 alone. Also noted: species or system NOD/Scid mice.
Description: as §4
In this study 20 NOD/Scid mice were grafted with A375 melanoma cells. The A375 cell line was maintained in incubators at 37° C. and 5% CO2 prior to use in the animal experiment. A375 was cultured in DMEM (Sigma-Aldrich, St-Louis, MO, USA) with the supplement of 10% fetal bovine serum (FBS), 3.2% non-essential amino acids, 100 units/mL Penicillin/Streptomycin, […] L-glutamine (all Lonza, Cologne, Germany). Cells were passaged in vitro in medium sized 75 cm^2 culture flasks. […]
For induction of subcutaneous tumours, 5×10^5 A375 cells were injected in the right flank of 20 NOD/SCID mice, and the animals were randomly assigned to 4 groups with […]. […] Tumour growth data for the treatment groups and different time points were analysed with repeated measures for 2-way Anova analysis.

The target in a further series is T1, xCT antiport (Homo sapiens, UniProt Q9UPY5).
T1 sequence (Q9UPY5 1-501): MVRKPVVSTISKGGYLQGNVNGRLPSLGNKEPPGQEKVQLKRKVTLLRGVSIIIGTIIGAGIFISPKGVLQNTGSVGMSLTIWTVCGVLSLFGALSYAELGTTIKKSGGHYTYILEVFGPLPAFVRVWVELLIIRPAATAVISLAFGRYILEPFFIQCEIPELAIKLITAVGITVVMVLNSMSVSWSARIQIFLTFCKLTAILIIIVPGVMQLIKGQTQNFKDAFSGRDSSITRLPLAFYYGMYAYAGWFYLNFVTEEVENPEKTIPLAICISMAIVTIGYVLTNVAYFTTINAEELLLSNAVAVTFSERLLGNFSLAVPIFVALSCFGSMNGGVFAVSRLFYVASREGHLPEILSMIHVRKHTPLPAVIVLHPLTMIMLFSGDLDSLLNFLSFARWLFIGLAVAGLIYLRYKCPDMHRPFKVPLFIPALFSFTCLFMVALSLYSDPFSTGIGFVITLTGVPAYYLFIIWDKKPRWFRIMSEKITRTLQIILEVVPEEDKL
T1 sequence (P08195 1-529 partner): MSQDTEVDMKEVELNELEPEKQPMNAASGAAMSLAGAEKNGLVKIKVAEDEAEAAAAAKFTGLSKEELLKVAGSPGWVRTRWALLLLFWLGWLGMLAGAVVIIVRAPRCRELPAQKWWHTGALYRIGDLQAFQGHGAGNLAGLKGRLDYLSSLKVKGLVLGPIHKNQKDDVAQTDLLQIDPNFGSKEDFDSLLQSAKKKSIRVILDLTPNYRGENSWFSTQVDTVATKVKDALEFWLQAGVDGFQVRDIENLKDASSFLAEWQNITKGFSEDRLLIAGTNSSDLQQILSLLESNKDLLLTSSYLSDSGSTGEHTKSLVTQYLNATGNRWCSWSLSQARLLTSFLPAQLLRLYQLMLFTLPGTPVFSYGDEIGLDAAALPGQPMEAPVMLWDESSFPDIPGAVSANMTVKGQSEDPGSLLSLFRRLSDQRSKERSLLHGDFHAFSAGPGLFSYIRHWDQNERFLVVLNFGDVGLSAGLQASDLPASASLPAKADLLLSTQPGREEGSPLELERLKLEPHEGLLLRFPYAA
The settings on record: reported in the literature; cited from earlier work.

As to `O=C(O)c1cc(/C=C/c2ccc(-c3ccccc3)cc2)ccc1O` [DC10, (E)-5-(2-([1,1′-biphenyl]-4-yl)vinyl)-2-hydroxybenzoic acid], in the series with A172 glioma cells, the activity at 250 µM stood at 10.4% and the activity at 500 µM was found to be 2.3%. In the series on A375, the activity at 250 µM was determined as 27.6% and the activity at 500 µM stood at 3.1%. For the same compound, in the series on MCF7, the activity at 250 µM stood at 28% and the activity at 500 µM came to 10.9%. Also, in the series with U87, the activity at 250 µM was 76.1% and the activity at 500 µM was 7.3%. Also, in series [1], the Clinical inspection entry is reported as “did not reveal any signs, symptoms or deficits”; the “Hematological analysis: hemoglobin, thrombocytes and leukocytes” value is on record as “normal”; the “Histopathological examination of organs” value was “did not show evidence of inflammation or other signs of tissue injury”; the “Macroscopic inspection of brain, lungs, heart, intestines, liver, kidneys and spleen” value was “appeared normal”. The “Biochemical blood analysis: S-Kreatinin, γ-GT, S-ASAT, S-ALAT, Amylase, S-Glukose” value in series [1] (serum) is “no significant elevation in S-Kreatinin (Kidney function), or shift in γ-GT, S-ASAT, S-ALAT, Amylase and S-Glukose”. In the series on A375 melanoma cells, the “Tumour volume versus the other groups” value is reported as “significantly smaller”.

On to `Cc1cc(O)c(C(=O)O)c(C)c1-c1ccc2ccccc2c1` [DC20, 6-hydroxy-2,4-dimethyl-3-(naphthalen-2-yl)benzoic acid], for which the activity at 250 µM came out at 82.1% in the series with A172 glioma cells, 63.1% with A375, 40.5% in the series with MCF7 and 61.1% with U87. The activity at 500 µM in the series on A172 glioma cells came to 11.9%; in the series with A375 it was 4.6%; with MCF7, 9.7%; with U87, 6.1%.

In the case of `CC1(C)c2ccccc2-c2ccc(/C=C/c3ccc(O)c(C(=O)O)c3)cc21` [DC21, (E)-5-(2-(9,9-dimethyl-9H-fluoren-2-yl)vinyl)-2-hydroxybenzoic acid], the activity at 250 µM with A172 glioma cells was determined as 4.9%; with A375, 4.2%; in the series with MCF7, 5.7%; in the series on U87, 5%. Also, the activity at 500 µM is 2.8% with A172 glioma cells, 3.3% with A375, 4.2% with MCF7 and 3.8% in the series on U87.

`O=C(O)c1cc(/N=N/c2ccc(S(=O)(=O)Nc3ccccn3)cc2)ccc1O` [SAS, Sulfasalazine, reference compound]: the activity at 250 µM in the series with A172 glioma cells was 15%; with A375, 13.5%; in the series with MCF7, 26.2%; with U87, 14%. Moreover, the activity at 500 µM was found to be 2.1% with A172 glioma cells, 5.3% in the series with A375, 7.6% in the series with MCF7 and 8% in the series with U87. Also, on xCT antiport, the xCT activity result is on record as “blocking the cell membrane xCT antiport”.

On to `Nc1ccc(O)c(C(=O)O)c1` [mesalazine, 5-amino-2-hydroxybenzoic acid], for which the xCT activity entry on xCT antiport is reported as “without xCT activity”.

Regarding `Nc1ccc(S(=O)(=O)Nc2ccccn2)cc1` [sulfapyridine, 4-amino-N-(pyridin-2-yl)benzenesulfonamide], the xCT activity entry at xCT antiport is “without xCT activity”.
